Starred links: 1 amine or outer side, 2 acyl side, 3 side chain; linkers in the order of their positions; H or OH if unused. Positions of bridges follow the written chain, without caps; N, C: chain ends. Residues, ends and D or L forms follow the SMILES beside them. Chains are numbered I, II in the order given. X3 = C[C@@H](CNC(=O)[*:1])NC(=O)NC[C@H](CCC(=O)O)NC(=O)NC[C@H](Cc1ccc(O)cc1)N[*:2]

The test system of data set [1] is normal mice (C57BL/6J). Briefly: Blood glucose study in normal fed mice. The note with it: for effect on blood glucose concentration: normal fed C57BL/6J mice, n = 3, 5 μg per mouse (50 nmol kg−1) i.v., monitored 6 h. Format: in vivo, mouse. Details: key to In vivo activity (indicator): + active; +++: + + + more active. The method, then:
In the first study, we evaluated the effect of the analogues on the blood glucose concentration of normal mice (Fig. 3). The fed mice were treated with the analogues and their blood glucose concentration was monitored before and after dosing for 6 h. […] Indeed, a decrease of blood glucose concentration is observed after 30 min and the effect is preserved for 4 h after dosing.
Fig. 3 Blood glucose study in mice. a–c Blood glucose concentration in normal mice (C57BL/6J, male, 20–25 g, n = 3) before and after dosing: 5 μg per mouse (50 nmol kg^−1) i.v. Formulation: 20 μg mL^−1 in PBS 1×. The dosing was done at T0. Data are mean ± SEM. […] Source data are provided as a Source Data file
After the acclimation period (at least 5 days), mice (male C57BL/6J mice (Charles River laboratories) 8 weeks old, 20–25 g) were randomized into 10 groups (n = 3 per group) according to their body weight. They were acutely treated via i.v. route at 10 am (5 µg per mouse). Blood glucose was measured before dosing and at 30 min, 1, 2, 4, 6 h after dosing in fed conditions.

Data set [2] in a line: NEP 24.11 degradation assay. The protocol:
Stock solutions of the oligomers were prepared at a concentration of 400 µM in a solution of 50 mM HEPES buffer, 50 mM NaCl, 0.05% Tween-80, pH 8.0. Stock solution of NEP 24.11 was prepared at a concentration of 100 µg mL^−1 in water. Stability of oligomers to NEP 24.11 was assessed by conducting protease reaction in a 96-well plates at 20 °C. […] Each compound was also incubated in the absence of the enzyme (12 µL of HEPES buffer and 38 µL of oligomer). […] A portion of the quenched reaction solution was analysed by HPLC. The time course of peptide degradation was determined by integrating the area of each peak in a series of HPLC traces.

The target in data set [3] is T1, mouse GLP-1 receptor (Mus musculus, UniProt O35659).
T1 sequence (O35659 22-463): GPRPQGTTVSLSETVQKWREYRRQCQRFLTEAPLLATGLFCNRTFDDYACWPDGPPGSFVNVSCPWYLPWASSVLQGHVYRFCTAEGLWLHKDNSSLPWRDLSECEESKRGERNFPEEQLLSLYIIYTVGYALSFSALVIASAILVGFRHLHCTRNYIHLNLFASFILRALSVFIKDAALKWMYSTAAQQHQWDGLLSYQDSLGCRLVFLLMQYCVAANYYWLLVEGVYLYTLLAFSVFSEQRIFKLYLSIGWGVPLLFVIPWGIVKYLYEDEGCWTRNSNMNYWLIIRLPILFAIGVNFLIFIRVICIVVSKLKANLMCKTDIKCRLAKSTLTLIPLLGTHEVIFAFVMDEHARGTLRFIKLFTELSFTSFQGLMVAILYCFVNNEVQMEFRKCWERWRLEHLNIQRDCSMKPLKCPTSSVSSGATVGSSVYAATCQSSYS
The note with it: for Potency (%), percentage of potency compare to GLP-1-G^2: cAMP production, from EC50. (Changes in cAMP serve as a functional read-out for many G protein-coupled receptors.)

Data set [4] is described as follows: in vitro. Conditions: mouse, plasma; for remaining at 20 min, 5 µM / remaining at 1 h, 5 µM: pH 7.4, % remaining analogue. The method, then:
The oligomer was then diluted 1/50 with a solution of plasma/PBS pH 7.4 (1:1) to afford a final concentration of 5 µM and incubated at 37 °C (4 µL of the stock solution was diluted with 196 µL of plasma/PBS, pH 7.4, 1:1). Each compound was also incubated in the absence of plasma (196 µL of H2O/PBS, pH 7.4, 1:1). At the indicated time (20 min and 60 min) an aliquot of 70 µL was removed from each experimental reaction and pipetting into 175 µL of acetonitrile at 0 °C to quench the reaction (t = 0 min was determined using the reaction without plasma). The samples were frozen at –80 °C before analysis. The frozen samples were defrosted, stirred with a vortex 5 min and finally centrifuged 5 min at 16 °C (1500 × g). The supernatant was analysed by LC-MS. The time course of oligomer degradation was determined by integrating the area of the peak in the extracted ion chromatogram.
Supplementar y Figur e 2 : Mouse plasma degradation assay. […] Data are
mean ± SEM, n = 4. Source data are provided as a Source Data file (T able 2 tab).
Supplementar y Figur e 3.
Data are mean ± SEM, n = 3.
Source data are provided as a Source Data file […]

For data set [5], the target named is T1, mouse GLP-1 receptor. Briefly: cell-based. Conditions: for Emax: read-out: Top (best-fit value), variable slope four-parameter fit, unconstrained, 14: experiment 1.
For data set [6], the system named is db/db mice. Briefly: Blood glucose study in db/db mice. In kind it is in vivo, mouse. The note with it: n = 5, 200 μg kg−1 (50 nmol kg−1) intraperitoneal, fed. The source says:
Data are mean ± SEM. […] Source data are provided as a Source Data file

In general, amount remaining refers to what is left of the initial amount, in per cent. The term half-life denotes the time in which the quantity being followed falls by half. By EC50 is commonly meant the midpoint of the concentration-response curve. In the case of `CC[C@H](C)[C@H](NC(=O)[C@H](Cc1ccccc1)NC(=O)[C@H](CCC(=O)O)NC(=O)[C@H](CCCCN)NC(=O)[C@H](C)NC(=O)[C@H](C)NC(=O)[C@H](CCC(N)=O)NC(=O)CNC(=O)[C@H](CCC(=O)O)NC(=O)[C@H](CC(C)C)NC(=O)[C@H](Cc1ccc(O)cc1)NC(=O)NC[C@H](C)NC(=O)NC[C@H](C)NC(=O)N[C@@H](CNC(=O)[C@H](CO)NC(=O)[C@@H](NC(=O)[C@H](Cc1ccccc1)NC(=O)[C@@H](NC(=O)CNC(=O)[C@H](CCC(=O)O)NC(=O)CNC(=O)[C@@H](N)Cc1c[nH]cn1)[C@@H](C)O)[C@@H](C)O)CC(=O)O)C(=O)N[C@@H](C)C(=O)N[C@@H](Cc1c[nH]c2ccccc12)C(=O)N[C@@H](CC(C)C)C(=O)N[C@H](C(=O)N[C@@H](CCCCN)C(=O)NCC(=O)N[C@@H](CCCNC(=N)N)C(=O)NCC(N)=O)C(C)C` [compound 2, GG2[D^uαA^uA^u]^9-12], the “effect on blood glucose concentration” value in data set [1] is reported as “showed no activity”. For the same compound, the share remaining at 6 h, […] in data set [2] (NEP 24.11 (isolated enzyme), pH 8, % remaining analogue, NEP 24.11 20 μg mL−1, […], pH 8.0, 20 °C, HPLC, time 6 h, replicate 1) was 39.2%. In data set [3], the “LogEC50 (best-fit value)” value is recorded as -7.897 and the “Potency (%), percentage of potency compare to GLP-1-G^2” value is listed as 2%. The half-life in data set [4] (pH 7.4) was 0.283 h. In addition, in data set [4], the fraction remaining at 20 min, 5 µM came to 38% and the amount remaining at 1 h, 5 µM worked out at 21.2%. Also, in data set [5], the EC50 came out at 13 nM and the Emax worked out at 77.7%.
For the compound `CC[C@H](C)[C@H](NC(=O)[C@H](Cc1ccccc1)NC(=O)[C@H](CCC(=O)O)NC(=O)[C@H](CCCCN)NC(=O)[C@H](C)NC(=O)[C@H](C)NC(=O)NC[C@H](C)NC(=O)NC[C@H](CCC(=O)O)NC(=O)NC[C@H](Cc1ccc(O)cc1)NC(=O)[C@H](Cc1ccc(O)cc1)NC(=O)[C@H](CO)NC(=O)[C@H](CO)NC(=O)[C@@H](NC(=O)[C@H](CC(=O)O)NC(=O)[C@H](CO)NC(=O)[C@@H](NC(=O)[C@H](Cc1ccccc1)NC(=O)[C@@H](NC(=O)CNC(=O)[C@H](CCC(=O)O)NC(=O)CNC(=O)[C@@H](N)Cc1c[nH]cn1)[C@@H](C)O)[C@@H](C)O)C(C)C)C(=O)N[C@@H](C)C(=O)N[C@@H](Cc1c[nH]c2ccccc12)C(=O)N[C@@H](CC(C)C)C(=O)N[C@H](C(=O)N[C@@H](CCCCN)C(=O)NCC(=O)N[C@@H](CCCNC(=N)N)C(=O)NCC(N)=O)C(C)C` [compound 9, GG2[Y^uE^uA^u]^14-17] (I: AAKEFIAWLVKGRG-NH2 / II: H-HGEGTFTSDVSSY; linker I:N-II:C via X3), the “In vivo activity (indicator)” value in data set [1] (mice, 50 nmol kg−1 i.v.) is “+”. In addition, the “effect on blood glucose concentration” value in data set [1] is “showed efficacy but no improvement”. The half-life in data set [2] (isolated enzyme neprilysin, pH 8) is 3 h. In data set [3], the “LogEC50 (best-fit value)” value is on record as -9.749 and the “Potency (%), percentage of potency compare to GLP-1-G^2” value is reported as 135%. Also, in data set [4], the share remaining at 20 min, 5 µM worked out at 33.1% and the fraction remaining at 1 h, 5 µM was 11.7%. In data set [5], a half-maximal response (EC50) required 0.18 nM and the Emax came out at 88.2%.
Regarding `CCCCCCCCCCCCCCCC(=O)N[C@@H](CCC(=O)NCCCC[C@H](NC(=O)[C@H](C)NC(=O)[C@H](C)NC(=O)[C@H](CCC(N)=O)NC(=O)CNC(=O)[C@H](CCC(=O)O)NC(=O)[C@H](CC(C)C)NC(=O)[C@H](Cc1ccc(O)cc1)NC(=O)[C@H](CO)NC(=O)[C@H](CO)NC(=O)[C@@H](NC(=O)[C@H](CC(=O)O)NC(=O)[C@H](CO)NC(=O)[C@@H](NC(=O)[C@H](Cc1ccccc1)NC(=O)[C@@H](NC(=O)CNC(=O)[C@H](CCC(=O)O)NC(=O)[C@H](C)NC(=O)[C@@H](N)Cc1c[nH]cn1)[C@@H](C)O)[C@@H](C)O)C(C)C)C(=O)N[C@@H](CCC(=O)O)C(=O)N[C@@H](Cc1ccccc1)C(=O)N[C@H](C(=O)N[C@@H](C)C(=O)N[C@@H](Cc1c[nH]c2ccccc12)C(=O)N[C@@H](CC(C)C)C(=O)N[C@H](C(=O)N[C@@H](CCCNC(=N)N)C(=O)NCC(=O)N[C@@H](CCCNC(=N)N)C(=O)NCC(=O)O)C(C)C)[C@@H](C)CC)C(=O)O` [liraglutide], the “activity on blood glucose 48 h after a single dose” value in data set [6] is listed as “no more significant activity”.

The record behind these values is paper PMC6389962 (Nature Communications, 2019).
